Reference: patent publication US11304945B2, “Pharmaceutical composition and method for preparing same” (Jiangsu Hengrui Medicine Co., Ltd., priority 2017, dated 2022)

Test: Pharmacokinetics (PK) study in animals
Format: in vivo
Details: both sexes, dog; beagle dogs, oral, 30 mg/kg, plasma
Experimental: 12 beagle dogs were grouped into two groups (6 beagle dogs per group, half male and half female). The beagle dogs were fasted for more than 12 h before the experiment, and food was provided 4 h after the drug administration on the day of the experiment. Water was not deprived during the experiment. The crystal form of compound A and the solid dispersion of compound A, respectively (the ratio of compound A to hydroxypropyl methylcellulose acetate succinate was 1:1, according to the formulation of Experimental Example 3), were administered orally to the two groups of animals with an administration dose of 30 mg/kg. 0.6 mL of blood was taken from climb veins before administration and 0.25, 0.5, 1.0, 2.0, 4.0, 6.0, 8.0, 12, 24 and 72 h after administration. The blood was stored in an ethylenediaminetetraacetic acid (EDTA) anticoagulant tube, and centrifuged for 10 minutes at 3500 rpm (4° C.) to separate the blood plasma. The plasma was stored at −70° C.
The concentration of API in the blood plasma and the administrated solution was determined by liquid chromatography-tandem mass spectrometry (LC/MS/MS). The pharmacokinetic parameters of beagle dogs after drug administration were calculated with the resulting plasma concentration using the non-compartmental model of Phoenix WinNonlin 6.4 software.

Compound: CC#CC(=O)N1CC[C@@H](n2cc(-c3ccc(Oc4c(F)cccc4F)cc3)c3c(N)n[nH]c(=O)c32)C1 [Crystal form of compound A, (R)-4-amino-1-(1-(but-2-ynoyl)pyrrolidin-3-yl)-3-(4-(2,6-difluorophenoxy)phenyl)-1,6-dihydro-7H-pyrrolo[2,3-d]pyridazin-7-one]
- AUC(0-inf): 3870 ± 3170 ng·h/mL
- Cmax: 630 ± 530 ng/mL
- half-life: 3.02 ± 0.65 h
